pIC50: −log10 of the molar value.
Target: IRE1α (Homo sapiens (Human), UniProt O75460, D688N)
Test: IRE1α TR-FRET competition binding assay (IRE1α HTRF)
Details: TR-FRET competition binding to kinase domain of IRE1α
Method: IRE1α TR-FRET Competition Binding Assay. The affinity of compound binding to the kinase domain of IRE1α was determined using a time-resolved fluorescence resonance energy transfer (TR-FRET) competition assay.
The purified protein (final concentration 0.25 nM) was pre-incubated with anti-His Europium labeled antibody (Life Technologies PV5596, final concentration 2 nM) for one hour at 4° C. in TR-FRET Assay Buffer (50 mM HEPES, pH 7.5, 10 mM MgCl2, 0.083 mM Brij 35, 1 mM DTT, and 0.1% bovine gamma globulin) prior to addition to test compounds. An Alexa fluor 647-labeled probe based on an ATP competitive inhibitor was added to a final concentration of 2 nM. Reactions were carried out for one hour at room temperature in a final volume of 20 μL in 384 well white ProxiPlates (Perkin Elmer 6008289). Binding of the probe to the IRE1α protein was detected in an Envision instrument (PerkinElmer) equipped with a TRF laser option and a LANCE/Delfia Dual/Bias D400/D630 mirror (Ex 347 nm, 1st Em 665 nm, 2nd Em 615 nm).

IRE1α, sequence (O75460 547-977 D688N): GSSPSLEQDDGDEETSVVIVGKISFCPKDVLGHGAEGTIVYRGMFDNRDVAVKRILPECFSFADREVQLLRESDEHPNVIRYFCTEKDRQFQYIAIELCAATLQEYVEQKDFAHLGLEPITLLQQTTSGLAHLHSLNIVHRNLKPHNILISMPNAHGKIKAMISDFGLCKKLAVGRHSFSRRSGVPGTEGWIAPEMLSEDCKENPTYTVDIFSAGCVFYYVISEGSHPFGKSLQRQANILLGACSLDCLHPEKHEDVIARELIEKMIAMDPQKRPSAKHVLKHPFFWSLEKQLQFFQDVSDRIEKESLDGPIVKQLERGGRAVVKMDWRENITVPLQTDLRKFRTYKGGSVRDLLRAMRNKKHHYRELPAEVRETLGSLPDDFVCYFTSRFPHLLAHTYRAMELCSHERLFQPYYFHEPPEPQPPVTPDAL

pIC50 | SMILES
9.64 | CC(C)n1c(=O)c(-c2cc(F)c(NS(=O)(=O)CCC(F)(F)F)c(F)c2)nc2cnc(N[C@@H]3CC[C@@H](N(C)C)[C@H](F)C3)nc21 (stereo in doubt) [Compound 168B, N-(4-(2-((4-(Dimethylamino)-3-fluorocyclohexyl)amino)-8-isopropyl-7-oxo-7,8-dihydropteridin-6-yl)-2,6-difluorophenyl)-3,3,3-trifluoropropane-1-sulfonamide]
9.66 | CC(C)n1c(=O)c(-c2ccc(NS(=O)(=O)CCC(F)(F)F)c(F)c2)nc2cnc(N[C@H]3CC[C@H](N(C)C)[C@@H](F)C3)nc21 (stereo in doubt) [Compound 179A, N-(4-(2-((4-(Dimethylamino)-3-fluorocyclohexyl)amino)-8-isopropyl-7-oxo-7,8-dihydropteridin-6-yl)-2-fluorophenyl)-3,3,3-trifluoropropane-1-sulfonamide]
9.82 | CC(C)n1c(=O)c(-c2ccc(NS(=O)(=O)CCC(F)(F)F)c(F)c2)nc2cnc(N[C@@H]3CC[C@@H](N(C)C)[C@H](F)C3)nc21 (stereo in doubt) [Compound 179B, N-(4-(2-((4-(Dimethylamino)-3-fluorocyclohexyl)amino)-8-isopropyl-7-oxo-7,8-dihydropteridin-6-yl)-2-fluorophenyl)-3,3,3-trifluoropropane-1-sulfonamide]
9.80 | CC(C)n1c(=O)c(-c2ccc(NS(=O)(=O)Cc3ccc(F)cc3)c(F)c2)nc2cnc(N[C@@H]3CC[C@@H](N(C)C)[C@H](F)C3)nc21 (stereo in doubt) [Compound 181A, N-(4-(2-((4-(Dimethylamino)-3-fluorocyclohexyl)amino)-8-isopropyl-7-oxo-7,8-dihydropteridin-6-yl)-2-fluorophenyl)-1-(4-fluorophenyl)methanesulfonamide]
9.82 | CC(C)n1c(=O)c(-c2ccc(NS(=O)(=O)Cc3ccc(F)cc3)c(F)c2)nc2cnc(N[C@H]3CC[C@H](N(C)C)[C@@H](F)C3)nc21 (stereo in doubt) [Compound 181B, N-(4-(2-((4-(Dimethylamino)-3-fluorocyclohexyl)amino)-8-isopropyl-7-oxo-7,8-dihydropteridin-6-yl)-2-fluorophenyl)-1-(4-fluorophenyl)methanesulfonamide]
9.96 | CC(C)n1c(=O)c(-c2ccc(NS(=O)(=O)Cc3ccccc3)c(F)c2)nc2cnc(N[C@H]3CC[C@H](N(C)C)[C@@H](F)C3)nc21 (stereo in doubt) [Compound 192A, N-(4-(2-((4-(Dimethylamino)-3-fluorocyclohexyl)amino)-8-isopropyl-7-oxo-7,8-dihydropteridin-6-yl)-2-fluorophenyl)-1-phenylmethanesulfonamide]
10.05 | CC(C)n1c(=O)c(-c2ccc(NS(=O)(=O)Cc3ccccc3)c(F)c2)nc2cnc(N[C@@H]3CC[C@@H](N(C)C)[C@H](F)C3)nc21 (stereo in doubt) [Compound 192B, N-(4-(2-((4-(Dimethylamino)-3-fluorocyclohexyl)amino)-8-isopropyl-7-oxo-7,8-dihydropteridin-6-yl)-2-fluorophenyl)-1-phenylmethanesulfonamide]
9.70 | CC(C)n1c(=O)c(-c2ccc(NS(=O)(=O)CC3CC(F)(F)C3)c(F)c2)nc2cnc(N[C@H]3CC[C@H](N(C)C)[C@@H](F)C3)nc21 (stereo in doubt) [Compound 193A, 1-(3,3-Difluorocyclobutyl)-N-(4-(2-((4-(dimethylamino)-3-fluorocyclohexyl)amino)-8-isopropyl-7-oxo-7,8-dihydropteridin-6-yl)-2-fluorophenyl)methanesulfonamide]
9.77 | CC(C)n1c(=O)c(-c2ccc(NS(=O)(=O)CC3CC(F)(F)C3)c(F)c2)nc2cnc(N[C@@H]3CC[C@@H](N(C)C)[C@H](F)C3)nc21 (stereo in doubt) [Compound 193B, 1-(3,3-Difluorocyclobutyl)-N-(4-(2-((4-(dimethylamino)-3-fluorocyclohexyl)amino)-8-isopropyl-7-oxo-7,8-dihydropteridin-6-yl)-2-fluorophenyl)methanesulfonamide]
8.55 | Cn1c(=O)c(-c2ccc(NS(=O)(=O)Cc3ccccc3)c(F)c2F)cc2cnc(N[C@H]3CCCNC3)nc21 [Compound 1, (S)—N-(2,3-Difluoro-4-(8-methyl-7-oxo-2-(piperidin-3-ylamino)-7,8-dihydropyrido[2,3-d]pyrimidin-6-yl)phenyl)-1-phenylmethanesulfonamide]
8.68 | Cn1c(=O)c(-c2ccc(NS(=O)(=O)Cc3ccccc3)c(F)c2F)cc2cnc(N[C@@H]3CNC[C@@H](F)C3)nc21 [Compound 2, N-(2,3-Difluoro-4-(2-(((3S,5S)-5-fluoropiperidin-3-yl)amino)-8-methyl-7-oxo-7,8-dihydropyrido[2,3-d]pyrimidin-6-yl)phenyl)-1-phenylmethanesulfonamide]
9.17 | CCn1c(=O)c(-c2ccc(NS(=O)(=O)Cc3ccccc3)c(F)c2F)cc2cnc(N[C@H]3CCCNC3)nc21 [Compound 3, (S)—N-(4-(8-Ethyl-7-oxo-2-(piperidin-3-ylamino)-7,8-dihydropyrido[2,3-d]pyrimidin-6-yl)-2,3-difluorophenyl)-1-phenylmethanesulfonamide]
8.30 | Cn1c(=O)c(-c2cccc3c(NS(=O)(=O)CCC(F)(F)F)c(F)ccc23)cc2cnc(N[C@H]3CCCNC3)nc21 [Compound 4, (S)-3,3,3-Trifluoro-N-(2-fluoro-5-(8-methyl-7-oxo-2-(piperidin-3-ylamino)-7,8-dihydropyrido[2,3-d]pyrimidin-6-yl)naphthalen-1-yl)propane-1-sulfonamide]
9.55 | Cn1c(=O)c(-c2cccc3c(NS(=O)(=O)Cc4ccccc4)c(F)ccc23)cc2cnc(N[C@H]3CCCNC3)nc21 [Compound 5, (S)—N-(2-Fluoro-5-(8-methyl-7-oxo-2-(piperidin-3-ylamino)-7,8-dihydropyrido[2,3-d]pyrimidin-6-yl)naphthalen-1-yl)-1-phenylmethanesulfonamide]
9.05 | Cn1c(=O)c(-c2cc(F)c(NS(=O)(=O)Cc3ccccc3)c3ccccc23)cc2cnc(N[C@H]3CCCNC3)nc21 [Compound 6, (S)—N-(2-Fluoro-4-(8-methyl-7-oxo-2-(piperidin-3-ylamino)-7,8-dihydropyrido[2,3-d]pyrimidin-6-yl)naphthalen-1-yl)-1-phenylmethanesulfonamide]
8.23 | Cn1c(=O)c(-c2cc(F)c(NS(=O)(=O)CCC(F)(F)F)c3ccccc23)cc2cnc(N[C@H]3CCCNC3)nc21 [Compound 7, (S)-3,3,3-Trifluoro-N-(2-fluoro-4-(8-methyl-7-oxo-2-(piperidin-3-ylamino)-7,8-dihydropyrido[2,3-d]pyrimidin-6-yl)naphthalen-1-yl)propane-1-sulfonamide]
7.44 | CCCS(=O)(=O)Nc1c(F)ccc2c(-c3cc4cnc(N[C@H]5CCCNC5)nc4n(C)c3=O)cccc12 [Compound 8, (S)—N-(2-Fluoro-5-(8-methyl-7-oxo-2-(piperidin-3-ylamino)-7,8-dihydropyrido[2,3-d]pyrimidin-6-yl)naphthalen-1-yl)propane-1-sulfonamide]
9.55 | CC(C)n1c(=O)c(-c2ccc(NS(=O)(=O)Cc3ccccc3)c(F)c2F)cc2cnc(N[C@@H]3CNC[C@@H](F)C3)nc21 [Compound 9, N-(2,3-Difluoro-4-(2-(((3S,5S)-5-fluoropiperidin-3-yl)amino)-8-isopropyl-7-oxo-7,8-dihydropyrido[2,3-d]pyrimidin-6-yl)phenyl)-1-phenylmethanesulfonamide]
8.96 | O=c1c(-c2ccc(NS(=O)(=O)Cc3ccccc3)c(F)c2F)cc2cnc(N[C@@H]3CNC[C@@H](F)C3)nc2n1C1CC1 [Compound 10, N-(4-(8-cyclopropyl-2-(((3S,5S)-5-fluoropiperidin-3-yl)amino)-7-oxo-7,8-dihydropyrido[2,3-d]pyrimidin-6-yl)-2,3-difluorophenyl)-1-phenylmethanesulfonamide]
8.96 | O=c1c(-c2ccc(NS(=O)(=O)Cc3ccccc3)c(F)c2F)cc2cnc(N[C@@H]3CNC[C@@H](F)C3)nc2n1CC(F)F [Compound 11, N-(4-(8-(2,2-Difluoroethyl)-2-(((3S,5S)-5-fluoropiperidin-3-yl)amino)-7-oxo-7,8-dihydropyrido[2,3-d]pyrimidin-6-yl)-2,3-difluorophenyl)-1-phenylmethanesulfonamide]
9.24 | CCn1c(=O)c(-c2ccc(NS(=O)(=O)Cc3ccccc3)c(F)c2F)cc2cnc(N[C@@H]3CNC[C@@H](F)C3)nc21 [Compound 12, N-(4-(8-Ethyl-2-(((3S,5S)-5-fluoropiperidin-3-yl)amino)-7-oxo-7,8-dihydropyrido[2,3-d]pyrimidin-6-yl)-2,3-difluorophenyl)-1-phenylmethanesulfonamide]
8.08 | CCCS(=O)(=O)Nc1ccc(-c2cc3cnc(N[C@@H]4CNC[C@@H](F)C4)nc3n(CC)c2=O)c(F)c1F [Compound 13, N-(4-(8-Ethyl-2-(((3S,5S)-5-fluoropiperidin-3-yl)amino)-7-oxo-7,8-dihydropyrido[2,3-d]pyrimidin-6-yl)-2,3-difluorophenyl)propane-1-sulfonamide]
8.30 | CCn1c(=O)c(-c2ccc(NS(=O)(=O)CCC(F)(F)F)c(F)c2F)cc2cnc(N[C@@H]3CNC[C@@H](F)C3)nc21 [Compound 14, N-(4-(8-Ethyl-2-(((3S,5S)-5-fluoropiperidin-3-yl)amino)-7-oxo-7,8-dihydropyrido[2,3-d]pyrimidin-6-yl)-2,3-difluorophenyl)-3,3,3-trifluoropropane-1-sulfonamide]
